Consider twelve molecules from US20130243707A1, “TOPICAL COMPOSITIONS” (priority 2006, published 2013).

For series [1] the following is noted: cited from earlier work.
For series [2] the following is noted: cited from earlier work. This is another data set of the same source.
Series [3] can be described thus: Solubility of Drugs in single solvent alcohols. Type of series: physicochemical. On the procedure: Briefly, the indicated NSAID was weighed and added to a beaker. To each beaker, incremental amounts of the indicated solvent was weighed and added. The beakers were sealed with aluminum foil and placed at room temperature or in a 35 C water bath for 20-30 minutes. They beakers were shaken frequently to mix the contents. After 20-30 minutes the solvent alcohols were examined. If a single phasic solution was not yet achieved, an additional aliquot of the solvent was added and the cycle was repeated until complete solvation had occurred.

Series [4] is described as follows: Super-solvent effect (Drug solubilized by combinations of solvent alcohols). It is filed as physicochemical. On the procedure:
Methods. First, the amount of each solvent alcohol required to solubilize one gram of NSAID was determined (saturation amount). Next, each combination of 2, 3 and 4 solvent alcohols were made using the saturation amounts determined by the first step. Finally, the amount of drug that could be solubilized by the solvent systems (i.e. the solvent alcohol combinations) was determined. The super-solvent effect was determined using this protocol, where percent=actual grams solubilized divided by the predicted grams (based upon the first step) expressed as percent increase (e.g. if twice the predicted amount could be solubilized, the super-solvent effect would be % 100.

The nature of series [5]: Maximal NSAID and water concentrations in PG/PEG solvent systems. It is filed as physicochemical. Further details: B maximum: unit not given here. From the text:
With the teaching herein, useful Drug and water concentrations can be determined for a given solvent system. Such concentrations can be described by the equation W=mD+b, where W is a water concentration, D is the Drug concentration, b is the y intercept, and m is the slope.

`CN1C(C(=O)Nc2ccccn2)=C(O)c2ccccc2S1(=O)=O` [piroxicam]: the pKa (as a rule, the negative logarithm of the acid dissociation constant) in series [1] was 3.6. In addition, the lipophilicity (Log P) (usually the decadic logarithm of the partition coefficient of the neutral form, usually between octanol and water) in series [2] is recorded as 1.8.

On to `Cc1cccc(Nc2ccccc2C(=O)O)c1C` [mefenamic acid], for which the pKa in series [1] is given as 3.69. Besides, the “Log P” value in series [2] is recorded as 5.12.

As to `O=C(O)c1ccccc1Nc1cccc(C(F)(F)F)c1` [flufenamic acid], in series [2], the “Log P” value is listed as 5.62.

For the molecule `O=C(O)Cc1ccc(-c2ccccc2)cc1` [felbinac], in series [1], the pKa was 4.29.

For the molecule `COc1ccc2c(c1)c(CC(=O)O)c(C)n2C(=O)c1ccc(Cl)cc1` [Indomethacin], in series [3] (Solubility at Room Temperature), the “Maximum Drug Concentration in single alcohol: EtOH” value (“Maximum Drug Concentration … EtOH” below) is 0.25, the “Maximum Drug Concentration in single alcohol: IPA” value (shortened to “Maximum Drug Concentration … IPA”) worked out at 0.10, the “Maximum Drug Concentration in single alcohol: PEG” value (“Maximum Drug Concentration … PEG” below) is 0.05 and the “Maximum Drug Concentration in single alcohol: PG” value (from here on “Maximum Drug Concentration … PG”) came to 0.05. Further, the “Log P” value in series [2] is recorded as 3.08.

Consider `CCCCOc1ccc(CC(=O)NO)cc1` [Bufexamac], for which, in series [3] (Solubility at Room Temperature), the “Maximum Drug Concentration … EtOH” value turned out to be 1.23 and the “Maximum Drug Concentration … IPA” value amounted to 0.62.

Turning to `O=C(O)c1cccnc1Nc1cccc(C(F)(F)F)c1` [Niflumic], the “Maximum Drug Concentration … EtOH” value in series [3] (Solubility at Room Temperature) is on record as 3.23.

Turning to `O=C(O)Cc1ccccc1Nc1c(Cl)cccc1Cl` [Diclofenac], the figures for the “Maximum Drug Concentration … EtOH” value in series [3] (Solubility at 35 C) and in series [3] (Solubility at Room Temperature) were 14.29 and 11.11, respectively. For the same molecule, the “Maximum Drug Concentration … PEG” value in series [3] (Solubility at 35 C) is listed as 8.33; in series [3] (Solubility at Room Temperature), 7.69. Besides, the “Maximum Drug Concentration … PG” value in series [3] (Solubility at 35 C) and in series [3] (Solubility at Room Temperature) was 14.29 each time. Further, the “Super-solvent Effect” value was found to be 81.0% in series [4] (PEG 400 11 gr, EtOH 6 gr); 90.9% in series [4] (PG 6 gr, EtOH 6 gr); 62.2% in series [4] (PG 6 gr, PEG 400 11 gr); 54.8% in series [4] (PG 6 gr, PEG 400 11 gr, EtOH 6 gr).

Consider `CC(C(=O)O)c1ccc(C(=O)c2ccccc2)s1` (stereo not drawn) [tiaprofenic acid], for which the pKa in series [1] was 4.05.

In the case of `CC(=O)Nc1ccc(O)cc1` [Acetaminophen], the “Maximum Drug Concentration … EtOH” value in series [3] (Solubility at 35 C) was found to be 16.67; in series [3] (Solubility at Room Temperature), 9.52. In addition, the “Maximum Drug Concentration … IPA” value amounted to 8.33 in series [3] (Solubility at 35 C) and 4.35 in series [3] (Solubility at Room Temperature). Further, the “Maximum Drug Concentration … PEG” value in series [3] (Solubility at 35 C) worked out at 10.00; in series [3] (Solubility at Room Temperature), 5.41. Further, the entries for the “Maximum Drug Concentration … PG” value in series [3] (Solubility at 35 C) and in series [3] (Solubility at Room Temperature) were 10.00 and 4.76, respectively. For the same molecule, the “Super-solvent Effect” value came out at 21.6% in series [4] (EtOH 5 gr, IPA 11 gr); 60.0% in series [4] (PEG 400 9 gr, EtOH 5 gr); 55.6% in series [4] (PEG 400 9 gr, EtOH 5 gr, IPA 11 gr); 63.8% in series [4] (PEG 400 9 gr, IPA 11 gr); 21.2% in series [4] (PG 9 gr, EtOH 5 gr); 14.6% in series [4] (PG 9 gr, EtOH 5 gr, IPA 11 gr). Besides, the “Super-solvent Effect” value came out at 22.2% in series [4] (PG 9 gr, IPA 11 gr); 22.0% in series [4] (PG 9 gr, PEG 400 9 gr); 41.8% in series [4] (PG 9 gr, PEG 400 9 gr, EtOH 5 gr); 52.5% in series [4] (PG 9 gr, PEG 400 9 gr, EtOH 5 gr, IPA 11 gr); 43.3% in series [4] (PG 9 gr, PEG 400 9 gr, IPA 11 gr). For the same molecule, the B maximum in series [5] (PG/PEG 1/3, b of y = −5.7055x + b) turned out to be 100; in series [5] (PG/PEG 1/4, b of y = −6.4787x + b), 118; in series [5] (PG/PEG 2/2, b of y = −11.52x + b) it was 154; in series [5] (PG/PEG 3/4, b of y = −7.7243x + b), 124; in series [5] (PG/PEG 4/3, b of y = −6.3927x + b) it was 102.

As to `C=CCOc1ccc(CC(=O)O)cc1Cl` [alclofenac], the pKa in series [1] is given as 4.26. For the same molecule, the “Log P” value in series [2] was 2.47.

Regarding `COc1ccc2cc([C@H](C)C(=O)O)ccc2c1` [Naproxen], the “Water Added Until Precipitation Occurs” value in series [5] (Naproxen 0.1215 gm, PG 2 gm, PEG 400 2 gm) is 3.5 gm; in series [5] (Naproxen 0.1755 gm, PG 1 gm, PEG 400 3 gm) it was 3.5 gm; in series [5] (Naproxen 0.1755 gm, PG 4 gm, PEG 400 3 gm) it was 5 gm; in series [5] (Naproxen 0.2295 gm, PG 3 gm, PEG 400 4 gm), 6.5 gm; in series [5] (Naproxen 0.27 gm, PG 1 gm, PEG 400 4 gm), 4.5 gm; in series [5] (Naproxen 0.324 gm, PG 2 gm, PEG 400 2 gm) it was 1 gm. The “Water Added Until Precipitation Occurs” value in series [5] (Naproxen 0.405 gm, PG 2 gm, PEG 400 2 gm) was 0.5 gm; in series [5] (Naproxen 0.468 gm, PG 1 gm, PEG 400 3 gm), 1 gm; in series [5] (Naproxen 0.468 gm, PG 4 gm, PEG 400 3 gm), 2.5 gm; in series [5] (Naproxen 0.54 gm, PG 1 gm, PEG 400 4 gm), 2.5 gm; in series [5] (Naproxen 0.585 gm, PG 1 gm, PEG 400 3 gm), 0.5 gm; in series [5] (Naproxen 0.585 gm, PG 4 gm, PEG 400 3 gm) it was 1.5 gm. Further, the “Water Added Until Precipitation Occurs” value in series [5] (Naproxen 0.612 gm, PG 3 gm, PEG 400 4 gm) was found to be 2.5 gm; in series [5] (Naproxen 0.675 gm, PG 1 gm, PEG 400 4 gm), 1 gm; in series [5] (Naproxen 0.765 gm, PG 3 gm, PEG 400 4 gm), 1.5 gm. The “Drug concentration range obtained at saturation” value in series [5] (PG and PEG 50% to 82%, PG to PEG ratio 0.33 to 1.3) is given as “up to 13%”. The “B maximum (intercept of water versus Naproxen line)” value is given as 52.794 in series [5] (PG/PEG 1/3); 47.637 in series [5] (PG/PEG 1/4); 54.158 in series [5] (PG/PEG 2/2); 52.964 in series [5] (PG/PEG 3/4); 56.913 in series [5] (PG/PEG 4/3).
